Results on 18 compounds are retold here after patent US10292970B2, “Heteroaryl-substituted imidazo[1,2-A]pyridines and their use” (BAYER PHARMA AKTIENGESELLSCHAFT, priority 2014, dated 2019).

Where a name gives a salt, the structure may show the parent alone.

The test system of the test is recombinant guanylate cyclase reporter cell line. The experiment in a line: Effect on a recombinant guanylate cyclase reporter cell line. To be noted: in some cases mean values from individual determinations, read-out: MEC (minimum effective concentration). In kind it is cell-based. The protocol:
B-2. Effect on a Recombinant Guanylate Cyclase Reporter Cell Line
The cellular activity of the compounds according to the invention is determined using a recombinant guanylate cyclase reporter cell line, as described in F. Wunder et al., Anal. Biochem. 339, 104-112 (2005).
Representative MEC values (MEC=minimum effective concentration) for the compounds of the invention are shown in the table below (in some cases as mean values from individual determinations): […]
On to `Cc1nc2c(OCc3c(F)cccc3F)cccn2c1-c1ccc(Nc2ccccc2)nc1` [Example 5], for which the minimal effective concentration came out at 3 µM. Consider `Cc1cc(OCc2c(F)cccc2F)c2nc(C)c(-c3ccnc(N4CCNCC4)c3)n2c1` [Example 13, 8-[(2,6-Difluorobenzyl)oxy]-2,6-dimethyl-3-[2-(piperazin-1-yl)pyridin-4-yl]imidazo[1,2-a]pyridine], for which the minimal effective concentration is 0.2 µM. The figure for `CCN(C)c1ccc(-c2c(C)nc3c(OCc4c(F)cccc4F)cccn23)cn1` [Example 3] is 0.2 µM; for `Cc1cc(OCc2c(F)cccc2F)c2nc(C)c(-c3nc(N)nc(N(C)C)n3)n2c1` [Example 8, 6-{8-[(2,6-Difluorobenzyl)oxy]-2,6-dimethylimidazo[1,2-a]pyridin-3-yl}-N, N-dimethyl-1,3,5-triazine-2,4-diamine] it is 0.3 µM; for `Cc1cc(OCc2c(F)cccc2F)c2nc(C)c(-c3nc(N)nc(N)n3)n2c1` [Example 7, 6-{8-[(2,6-Difluorobenzyl)oxy]-2,6-dimethylimidazo[1,2-a]pyridin-3-yl}-1,3,5-triazine-2,4-diamine] it is 0.3 µM.

As for `CC(=O)Nc1cccc(-c2c(C)nc3c(OCC4CCCCC4)cccn23)c1` [Example 19, N-{3-[8-(Cyclohexylmethoxy)-2-methylimidazo[1,2-a]pyridin-3-yl]phenyl}acetamide], the minimal effective concentration was found to be 0.2 µM.

Turning to `Cc1cc(OCc2c(F)cccc2F)c2nc(C)c(-c3cc(NCC(C)(C)N)ncc3F)n2c1` [Example 10, N′-(4-{8-[(2,6-Difluorobenzyl)oxy]-2,6-dimethylimidazo[1,2-a]pyridin-3-yl}-5-fluoropyridin-2-yl)-2-methylpropane-1,2-diamine], the minimal effective concentration was 0.1 µM. The figure for `Cc1cc(OCc2c(F)cccc2F)c2nc(C)c(-c3cccc(N4CCCC4)c3)n2c1` [Example 14, 8-[(2,6-Difluorobenzyl)oxy]-2,6-dimethyl-3-[3-(pyrrolidin-1-yl)phenyl]imidazo[1,2-a]pyridine] is 6.5 µM. The figure for `COCCNc1ccc(-c2c(C)nc3c(OCc4c(F)cccc4F)cccn23)cn1` [Example 2] is 0.1 µM; for `Cc1nc2c(OCc3c(F)cccc3F)cccn2c1-c1cnc(N2CCN(C)CC2)nc1` [Example 6, 8-[(2,6-Difluorobenzyl)oxy]-2-methyl-3-[2-(4-methylpiperazin-1-yl)pyrimidin-5-yl]imidazo[1,2-a]pyridine] it is 10 µM.

As for `Cc1nc2c(OCc3c(F)cccc3F)cccn2c1-c1ncnc(NCC(C)(N)CCC(F)(F)F)n1` (single isomer, unassigned; enantiomer b) [Example 12, ent-N^1-(4-{8-[(2,6-Difluorobenzyl)oxy]-2-methylimidazo[1,2-a]pyridin-3-yl}-1,3,5-triazin-2-yl)-5,5,5-trifluoro-2-methylpentane-1,2-diamine (enantiomer B)], the minimal effective concentration stood at 1 µM. The figure for `CC(=O)Nc1cccc(-c2c(C)nc3c(OCc4ncccc4F)cc(Cl)cn23)c1` [Example 20, N-(3-{6-Chloro-8-[(3-fluoropyridin-2-yl)methoxy]-2-methylimidazo[1,2-a]pyridin-3-yl}phenyl)acetamide] is 0.3 µM. The result for `Cc1cc(OCc2c(F)ccc(F)c2F)c2nc(C)c(-c3nccc(N4CCCC4)n3)n2c1` [Example 16, 2,6-Dimethyl-3-[4-(pyrrolidin-1-yl)pyrimidin-2-yl]-8-[(2,3,6-trifluorobenzyl)oxy]imidazo[1,2-a]pyridine trifluoroacetate] reads 3 µM. The result for `Cc1nc2c(OCc3c(F)cccc3F)cccn2c1-c1ccc(NCc2ccccc2)nc1` [Example 1, N-Benzyl-5-{8-[(2,6-difluorobenzyl)oxy]-2-methylimidazo[1,2-a]pyridin-3-yl}pyridine-2-amine] reads 0.1 µM.

Regarding `CCCNc1nc(N)nc(-c2c(C)nc3c(OCc4c(F)cccc4F)cc(C)cn23)n1` [Example 9, 6-{8-[(2,6-Difluorobenzyl)oxy]-2,6-dimethylimidazo[1,2-a]pyridin-3-yl}-N-propyl-1,3,5-triazine-2,4-diamine], the minimal effective concentration was determined as 0.3 µM. The figure for `Cc1nc2c(OCc3c(F)cccc3F)cccn2c1-c1ccc(N2CC(C)OC(C)C2)nc1` (stereo not drawn) [Example 4] is 1 µM; for `CC(=O)Nc1cccc(-c2c(C)nc3c(OCc4c(F)cccc4F)cc(C)cn23)c1` [Example 15, N-(3-{8-[(2,6-Difluorobenzyl)oxy]-2,6-dimethylimidazo[1,2-a]pyridin-3-yl}phenyl)acetamide] it is 0.02 µM; for `Cc1nc2c(OCc3c(F)cccc3F)cccn2c1-c1nc(Cl)nc(NCC(C)(C)N)n1` [Example 11, N′-(4-Chloro-6-{8-[(2,6-difluorobenzyl)oxy]-2-methylimidazo[1,2-a]pyridin-3-yl}-1,3,5-triazin-2-yl)-2-methylpropane-1,2-diamine] it is 0.3 µM.
